Reference: PubChem BioAssay (NCI)
Where “and” joins values, the source holds several entries; their conditions need not be identical. Equal values may be shown once.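 Values below derive from 48-hour exposures of cells grown in 96-well plates, with endpoints linearly interpolated between the two concentrations bracketing the appropriate inhibition level. GI50 is the concentration that inhibits growth by half. TGI is the concentration that stops growth completely.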 Where a SMILES comes first, the peptide text is derived from it. [ ]: non-standard residue; d: D form. The star is where a group is joined. ξ: configuration not given here. ξD = NC(CC(=O)O)C(=O)O; Ac3c = NC1(C(=O)O)CC1; Boc = CC(C)(C)OC(=O)*; OBn = c1ccc(CO*)cc1

Tests used:
Assay in all cases: NCI-60 cell line screen, 48 h
[1] = system: COLO 205 colon
[2] = system: DMS 114 small cell lung
[3] = system: HCT-15 colon
[4] = system: A549 NSCLC
[5] = system: SK-MEL-5 melanoma
[6] = system: UACC-62 melanoma
[7] = system: IGROV1 ovarian
[8] = system: SNB-19 CNS
[9] = system: MOLT-4 leukemia
[10] = system: SNB-78 CNS
[11] = system: MDA-MB-435

Row | Compound | TGI [1] [µM] | TGI [2] [µM] | TGI [3] [µM] | TGI [4] | TGI [5] [µM] | TGI [6] [µM] | TGI [7] [µM] | TGI [8] | TGI [9] [µM] | TGI [10] [µM] | TGI [11] [µM] | GI50 [8] [µM] | GI50 [1] [µM] | GI50 [3] [µM] | GI50 [4] [µM] | GI50 [5] [µM] | GI50 [6] [µM] | GI50 [7] [µM] | GI50 [9] [µM] | GI50 [11] [µM]
1 | Oc1ccc2c(c1)CC[N+]1=C2CCC2CCCC21 (stereo not drawn) | > 100 | > 100 | > 100 | > 100 µM | > 100 | > 100 | > 100 | > 100 µM | – | – | – | – | – | – | – | – | – | – | – | –
2 | [N-]=[N+]=NC1CC(n2cc(COCC(F)(F)F)c(=O)[nH]c2=O)OC1CO (stereo not drawn) | > 100 | > 100 | – | > 100 µM | > 100 | > 100 | > 100 | > 100 µM | > 100 | > 100 | – | – | – | – | – | – | – | – | – | –
3 | O=C(NNc1cn[nH]c(=O)c1Cl)/C(=C/c1ccc2c(c1)OCO2)NC(=O)c1ccccc1 | > 100 | – | > 100 | > 100 µM | > 100 | > 100 | > 100 | > 100 µM | > 100 | – | > 100 | – | – | – | – | – | – | – | – | –
4 | CCCn1c(=O)c2ccccc2[n+]2c(-c3ccc([N+](=O)[O-])cc3)csc12 | > 100 | – | > 100 | > 100 µM | 45.7 | > 100 | > 100 | > 100 µM | 79.9 | – | > 100 | – | – | – | – | – | – | – | – | –
5 | CC1(C)CN(c2ccccc2)C(=O)C1OC(=O)[C@@]1(C)C[C@@H]2C=C[C@H]1C2 (stereo partly drawn) | 34 | – | 55.1 | 83.7 µM | 29.4 | 41.4 | 41.3 | 65.5 µM | > 100 | – | 42 | – | – | – | – | – | – | – | – | –
6 | C=CC(C)(C)N[C@@H](C(=O)N1CCC[C@H]1c1nc(-c2nc(C(=O)OCC=C(C)C)c(C)o2)c(C)o1)C(C)C | 52.1 | – | 51.5 | > 100 µM | 52 | 38.6 | > 100 | 55 µM | 36.9 | – | 39.8 | – | – | – | – | – | – | – | – | –
7 | CC(NC(=O)OCc1ccccc1)NC(=O)C(CC(=O)OC(C)(C)C)NC(=O)OC(C)(C)C (stereo not drawn) | > 100 | – | > 100 | > 100 µM | > 100 | > 100 | > 100 | > 100 µM | > 100 | – | > 100 | – | – | – | – | – | – | – | – | –
8 | NC(c1ccccc1)(C(F)(F)F)P1(=O)OC(=O)c2ccccc2O1 (stereo not drawn) | > 100 | – | > 100 | > 100 µM | > 100 | > 100 | > 100 | > 100 µM | > 100 | – | > 100 | – | – | – | – | – | – | – | – | –
9 | O=C(c1ccccc1)c1c(C(F)(F)F)n([O-])c2cc(Cl)c(Cl)cc2[n+]1=O | 18.8 | – | 2.76 | 4.19 µM | 5.13 | 8.28 | 0.984 | 3 µM | 1.56 | – | 3.08 | – | – | – | – | – | – | – | – | –
10 | CC(C)[C@H]1NC(=O)[C@H]2N=C(O[C@@H]2C)[C@@H]2CCCN2C(=O)[C@H](Cc2ccccc2)NC(=O)[C@@H]2CSC(=N2)[C@@H](Cc2ccccc2)NC(=O)[C@@H]2CSC1=N2 | > 100 | – | > 100 | > 100 µM | > 100 | > 100 | > 100 | > 100 µM | > 100 | – | > 100 | – | – | – | – | – | – | – | – | –
11 | COc1cc(/C=C2\N=C(c3ccccc3)N(/N=C3\C(=O)Nc4ccccc43)C2=O)cc(OC)c1OC | > 100 | – | > 100 | > 100 µM | > 100 | > 100 | > 100 | > 100 µM | > 100 | – | > 100 | – | – | – | – | – | – | – | – | –
12 | OCC(O)C1OC2CC1Nc1ccccc1N2 (stereo not drawn) | > 100 | – | > 100 | > 100 µM | > 100 | > 100 | > 100 | > 100 µM | > 100 | – | > 100 | – | – | – | – | – | – | – | – | –
13 | CC(=O)OCc1cc(=O)n(C)c2c3c4c(cc12)c(C)cc(=O)n4CO3 | 4.23 | 6.11 | 37.8 | 21.1 µM | 4.18 | 3.58 | 11.5 | 72.8 µM | 4.25 | 14.2 | – | – | – | – | – | – | – | – | – | –
14 | O=C1CSC2=NCC3(NN12)c1ccccc1-c1ccccc13 | > 10 | – | > 10 | > 10 µM | > 10 | > 10 | > 10 | > 10 µM | > 10 | – | > 10 | – | – | – | – | – | – | – | – | –
15 | N/N=C1/C(=N/O)CCc2nonc21 | > 100 | – | > 100 | > 100 µM | > 100 | > 100 | > 100 | > 100 µM | > 100 | – | > 100 | – | – | – | – | – | – | – | – | –
16 | COC(=O)C1(NC(=O)C(CC(=O)OCc2ccccc2)NC(=O)OC(C)(C)C)CC1 (stereo not drawn) (Boc-[ξD](OBn)-[Ac3c]-OMe) | > 100 | – | > 100 | > 100 µM | > 100 | 91.7 | > 100 | > 100 µM | > 100 | – | > 100 | – | – | – | – | – | – | – | – | –
17 | CN(C)CCCNc1c2ccccc2nc2cccc([N+](=O)[O-])c12 | – | 0.0385 | 0.00142 | 0.0121 µM and 0.0944 µM | < 0.001 | – | 0.00491 | 0.0171 µM and 0.142 µM | 0.052 | 0.0601 | 0.00242 | 0.0303 | – | – | – | – | – | – | – | –

Row | Compound | TGI [1] [µM] | TGI [2] [µM] | TGI [3] [µM] | TGI [4] | TGI [5] [µM] | TGI [6] [µM] | TGI [7] [µM] | TGI [8] | TGI [9] [µM] | TGI [10] [µM] | TGI [11] [µM] | GI50 [8] [µM] | GI50 [1] [µM] | GI50 [3] [µM] | GI50 [4] [µM] | GI50 [5] [µM] | GI50 [6] [µM] | GI50 [7] [µM] | GI50 [9] [µM] | GI50 [11] [µM]
18 | CSc1nc(NC2OCC(O)C(O)C2O)c(N)c(=O)n1C (stereo not drawn) | > 100 | – | > 100 | > 100 µM | > 100 | > 100 | > 100 | > 100 µM | > 100 | > 100 | – | – | – | – | – | – | – | – | – | –
19 | CC(=Nc1c2ccccc2nc2ccccc12)N(C)C | 25.2 | – | > 100 | > 100 µM | 27.8 | 32.9 | > 100 | > 100 µM | 44.8 | – | > 100 | – | – | – | – | – | – | – | – | –
20 | O=C(/C=C/c1ccc(-c2ccccc2)cc1)NCc1ccc(C(=O)NCCc2c[nH]c3ccccc23)cc1 | > 100 | – | > 100 | 60.4 µM | > 100 | > 100 | > 100 | 53.6 µM | 38.8 | – | > 100 | – | – | – | – | – | – | – | – | –
21 | Nc1ccccc1NC(=O)CCCCCCC(=O)Nc1ccc2c(c1)/C(=C/c1ccc[nH]1)C(=O)N2 | > 100 | – | > 100 | > 100 µM | > 100 | > 100 | > 100 | > 100 µM | > 100 | – | > 100 | > 100 | 43.8 | > 100 | > 100 | > 100 | > 100 | 49.8 | 2.9 | 14.7
22 | COc1ccc(/C=C(\C(=C/c2ccc(OC)cc2)[N+](=O)[O-])[N+](=O)[O-])cc1 | 21.6 | – | 6.18 | > 61.3 µM | 15.9 | 9.38 | 15.4 | 30.2 µM | > 70.4 | – | 12.1 | – | – | – | – | – | – | – | – | –
23 | COc1ccc2c(c1)nc1n2C(N)=Nc2ccccc2S1 | > 100 | – | > 100 | > 100 µM | > 61.9 | > 74.4 | > 100 | > 100 µM | > 56.6 | – | > 100 | – | – | – | – | – | – | – | – | –
24 | O=C1CCC2(CC1CCSc1ccccc1)OCCO2 (stereo not drawn) | > 100 | – | > 100 | > 100 µM | > 100 | > 100 | > 100 | > 100 µM | > 100 | – | > 100 | – | – | – | – | – | – | – | – | –
25 | C1#Cc2ccccc2OCCOc2ccccc2C#Cc2ccccc2OCCOc2ccccc21 | > 100 | – | > 100 | > 100 µM | 58.7 | > 100 | 41.5 | > 100 µM | 31.3 | – | > 100 | – | – | – | – | – | – | – | – | –
26 | O=c1[nH]c2ccccc2nc1/C=C(\O)C(F)F | > 100 | – | > 100 | > 100 µM | > 100 | > 100 | > 100 | > 100 µM | > 100 | – | > 100 | – | – | – | – | – | – | – | – | –
27 | O=c1[nH]c(=O)n(COCc2ccccc2)c2ccc(Br)cc12 | > 100 | – | > 100 | > 100 µM | > 100 | > 100 | > 100 | > 100 µM | > 100 | – | > 100 | – | – | – | – | – | – | – | – | –
28 | COc1ccc(-c2nc(-c3cc4ccccc4oc3=O)cs2)cc1 | > 100 | – | > 100 | > 100 µM | > 100 | > 100 | > 100 | > 100 µM | > 100 | – | > 100 | – | – | – | – | – | – | – | – | –
29 | Cc1cccc2nc3cccc(C(=O)NCCC[N+](C)(CCCNC(=O)c4cccc5nc6cccc(C)c6nc45)Cc4c([N+](=O)[O-])ncn4C)c3nc12 | > 1100 | – | > 1100 | > 1100 µM | 366 | > 1100 | > 1100 | > 1100 µM | – | – | > 1100 | – | 184 | 13.6 | 8.19 | 12.1 | 38.8 | – | 8.38 | 191
30 | CCOP(=O)(OCC)/C(=C\N1C(=O)CC(=O)NC1=S)C(=O)OC | > 100 | – | > 100 | > 100 µM | > 100 | > 100 | > 100 | > 100 µM | > 100 | – | > 100 | – | – | – | – | – | – | – | – | –
31 | COc1ccc(/C=C2\CC3C4CC=C5C[C@@H](O)CC[C@]5(C)C4CC[C@]3(C)\C2=N\O)cc1OC (stereo partly drawn) | 67.1 | – | > 100 | > 100 µM | 45.1 | 25.6 | > 100 | > 100 µM | > 100 | – | > 100 | – | – | – | – | – | – | – | – | –
32 | O=C(NCCCCNCCCNC(=O)c1ccccc1)c1ccccc1 | > 100 | – | > 100 | > 100 µM | > 100 | > 100 | > 100 | > 100 µM | > 100 | – | > 100 | – | – | – | – | – | – | – | – | –
33 | COC(=O)c1ccc(CCc2cc(O)ccc2O)cc1 | 54.5 | – | 27.5 | > 61.3 µM | 25.7 | 33.9 | 23.8 | > 62.7 µM | 15.3 | – | 21.7 | – | – | – | – | – | – | – | – | –
